From US20200399262A1, “COMPOUNDS FOR INHIBITING PROTEIN DEGRADATION AND METHODS OF USE THEREOF IN THE TREATMENT OF CANCER” (PI Therapeutics Ltd, priority 2018, published 2020) come the findings set out here.

The subject of one series is HCT-116 xenograft. Put plainly: HCT-116 colorectal flank xenograft in nude mice. The series is classed as in vivo. The note with it: 8 mg/kg IV, TIW for 21 days. An excerpt:
FIG. 6A-6D show the evaluated in-vivo efficacy of Compound AA in a colorectal mouse flank xenograft models (HCT116, SW620). […] HCT-116 or SW620 cells (5×10^6 cells/mouse) were implanted in the rear flank of mail mice (6 weeks of age at the time of tumor implantation). On Day 20-23, mice were randomized for equivalent distribution of tumor volumes to treatment groups (n=5/group) and treated IV with vehicle, Compound AA (FIG. 6A, FIG. 6B) TIW for 21 days. Data are presented as mean tumor volume±SD. Body weight % changes in treated animals observed at end point (FIG. 6C, FIG. 6D). Animal xenograft models. MM1.S, HCT-116, SW620 cell lines were purchased from ATCC and used for xenograft model. The cells were cultured in RPMI medium (Sigma-Aldrich) supplemented with 10% fetal bovine serum (FBS) and divided for up to 5 passages. Shortly prior to injection, cell suspension was mixed with Matrigel at 1:[…]) and injected subcutaneously to the rear flank area of male nude athymic 6 weeks old mice to obtain administration of 5×10^6 cells/animal. On day 20-23, when tumor volume reached 100-150 mm^3, mice were randomized for equivalent distribution of tumor volumes to treatment groups (n=5/group) and treated via intravenous injection.

The next series concerns SF-268. Put plainly: NCI60 screen cytotoxicity. The format is cell-based. To be noted: Homo sapiens, CNS, read-out: Compound B1 EC50.
The test system of another series is HCT-116. Put plainly: NCI60 screen cytotoxicity. The format is cell-based. The note with it: Homo sapiens, Colon cancer, read-out: Compound B1 EC50.
The test system of another series is A-549. Put plainly: NCI60 screen cytotoxicity. The series is classed as cell-based. To be noted: Homo sapiens, A549, Lung cancer, read-out: Compound B1 EC50.
The test system of the next series is SF-539. Put plainly: NCI60 screen cytotoxicity. To be noted: Homo sapiens, CNS, read-out: Compound B1 EC50. The format is cell-based.
The test system of the next series is HOP-62. Put plainly: NCI60 screen cytotoxicity. The format is cell-based. To be noted: Homo sapiens, Lung cancer, read-out: Compound B1 EC50.
The test system of a further series is EKVX. The experiment in a line: NCI60 screen cytotoxicity. The format is cell-based. To be noted: Homo sapiens, Lung cancer, read-out: Compound B1 EC50.
The test system of a further series is TK-10. Put plainly: NCI60 screen cytotoxicity. The note with it: Homo sapiens, Renal cancer, read-out: Compound B1 EC50. The format is cell-based.
The next series relates to MCF-7. The experiment in a line: NCI60 screen cytotoxicity. The note with it: Homo sapiens, MCF7, Breast cancer, read-out: Compound B1 EC50. The series is classed as cell-based.
In the next series the test system is 786-0. Put plainly: NCI60 screen cytotoxicity. The note with it: Homo sapiens, Renal cancer, read-out: Compound B1 EC50. The format is cell-based.
A further series has as its system MOLT-4. The experiment in a line: NCI60 screen cytotoxicity. The note with it: Homo sapiens, Leukemia, read-out: Compound B1 EC50. The format is cell-based.
The subject of series [1] is UPR branches (PERK, ATF6 and IRE1alpha). Put plainly: UPR activation in MM1.S cells (immunoblot, RT-PCR). The series is classed as cell-based. The note with it: 200 nM. The protocol: MM1.S cells were treated with 200 nM of Compound B1 for the indicated time points. Following the stated incubation periods the cells were harvested, lysed and resolved on SDS-PAGE gel. Proteins were transferred to PVDF membrane and immunoblotted with the indicated antibodies: FIG. 7A: anti phospho JNK, FIG. 7B: anti JNK, FIG. 7C: anti ATF6. FIG. 7D: anti phospho eIF2alpha, FIG. 7E: anti eIF2alpha, FIG. 7F: anti ATF4. XBP1 splicing was performed on cDNA (FIG. 7G), RNA was extracted cDNA was generated by RT-PCR and XPB1 transcript was amplified by PCR with gene specific primers. Splicing was detected by differential migration of XBP1 transcript on agarose gel. Transcriptional changes of CHOP (FIG. 7K) and ATF4 (FIG. 7J) were estimated by quantitative PCR with gene specific primers. Relative gene expression levels were normalized to GAPDH. Cleaved form of ATF6 and spliced XBP1 is indicated with arrow.
Protein analysis by Western blot. At the end of treatment period, the cells were lysed with M-PER mammalian protein extraction reagent (ThermoFisher Scientific) supplemented with protease inhibitors. Equal protein amounts were resolved on pre-cast SDS-PAGE (ThermoFisher Scientific) and transferred to a PVDF membrane. The membrane was immunoblotted with antibodies as indicated. The following antibodies were used: Ub MAb (SC-8017, Santa-Cruz), ATF4, ATF6, phospho JNK, JNK (Cell signaling); eIF2alpha, phospho eIF2alpha (Novus).
RT-PCR: MM cells were treated with compounds as indicated. Total RNA was extracted using RNAeasy kit (QIAGEN) and cDNA was synthesized using reverse transcriptase (Quantaces biosciences). mRNA levels of ATF4 and CHOP were determined by quantitative PCR using a StepOnePlus™ Real Time PCR system (Life Technologies) with gene specific assays (Thermo Scientific). XBP splicing were addressed by differential migration of XBP-1 gene transcript full size versus spliced form on 2% Agarose gel.

For another series, the system named is OVCAR-8. The experiment in a line: NCI60 screen cytotoxicity. The format is cell-based. To be noted: Homo sapiens, Ovarian cancer, read-out: Compound B1 EC50.
Another series has as its system BT-549. The experiment in a line: NCI60 screen cytotoxicity. The series is classed as cell-based. The note with it: Homo sapiens, Breast cancer, read-out: Compound B1 EC50.
In the next series the test system is NCI-H322M. Put plainly: NCI60 screen cytotoxicity. The series is classed as cell-based. The note with it: Homo sapiens, Lung cancer, read-out: Compound B1 EC50.
A further series has as its system SK-MEL-5. The experiment in a line: NCI60 screen cytotoxicity. The series is classed as cell-based. To be noted: Homo sapiens, Melanoma, read-out: Compound B1 EC50.
The next series has as its system SNB-75. The experiment in a line: NCI60 screen cytotoxicity. The note with it: Homo sapiens, CNS, read-out: Compound B1 EC50. The series is classed as cell-based.
A further series has as its system IGR-OV1. Put plainly: NCI60 screen cytotoxicity. The series is classed as cell-based. The note with it: Homo sapiens, IGROV-1, Ovarian cancer, read-out: Compound B1 EC50.
The test system of the next series is SK-MEL-2. The experiment in a line: NCI60 screen cytotoxicity. The format is cell-based. The note with it: Homo sapiens, Melanoma, read-out: Compound B1 EC50.

Bounds are passed on as bounds.

Regarding `CN(C)CCCS(=O)(=O)N1C/C(=C\c2ccc(C#N)cc2)C(=O)/C(=C/c2ccc(C#N)cc2)C1` [Compound AA], in the series with HCT-116 xenograft, the Animal body weight result is given as “not considerably affected” and the “tumor growth compared to vehicle control” value is on record as “significantly inhibited tumor growth”.
The term EC50 denotes the concentration giving half of the maximal effect. On to `CN(C)CC(=O)NCC(=O)N1C/C(=C\c2ccc(C#N)cc2)C(=O)/C(=C/c2ccc(C#N)cc2)C1` [Compound B1], for which the EC50 in the series with SF-268 was less than 300 nM; with HCT-116, less than 300 nM; in the series with A-549, 300 to 1000 nM; in the series with SF-539, 300 to 1000 nM; with HOP-62 it was less than 300 nM; in the series on EKVX, 300 to 1000 nM. Moreover, the EC50 is 300 to 1000 nM in the series on TK-10; 300 to 1000 nM with MCF-7; 300 to 1000 nM in the series on 786-0; less than 300 nM in the series with MOLT-4; less than 300 nM with OVCAR-8; less than 300 nM in the series with BT-549. The EC50 with NCI-H322M is 300 to 1000 nM; with SK-MEL-5, 300 to 1000 nM; in the series with SNB-75, 300 to 1000 nM; with IGR-OV1, less than 300 nM; in the series with SK-MEL-2, less than 300 nM. Further, the “eIF2alpha phosphorylation (PERK activation)” value in [1] (after 1 hr of treatment) is recorded as “increases eI2Falpha phosphorylation”. In addition, the XBP splicing entry in [1] (differential migration of XBP gene transcript) was “Spliced XBP was detected”. Further, in series [1] (immunoblot), the “ATF6 full size form” value is “short term upregulation of ATF6 full size form followed by a rapid decline”. Also, the “phosphorylated JNK” value in series [1] (immunoblot, no change in total protein levels) was “significant upregulation in phosphorylated JNK”. In series [1] (peaking at 3 hr post treatment), the “ATF4 and CHOP transcription (quantitative PCR)” value was “transcriptional increase of both ATF4 and CHOP”.
